The target in this assay is muscle nicotinic acetylcholine receptor (Mus musculus). Put plainly: The compound was tested for inhibitory potency against Nicotinic acetylcholine receptor in mouse muscle.

As usually defined, the IC50 is the concentration needed to halve the response being measured. `CCCCCC1(CCO)N=N1` [2-(3-Pentyl-3H-diazirin-3-yl)-ethanol] showed an IC50 of 33 µM.

The values above are taken from BindingDB's records for doi:10.1021/jm9806300 (Massachusetts General Hospital, 1999).
